Reference: patent US20210337839A1, “SYSTEM AND METHOD FOR RECO[…]” (Restrain Company Limited, priority 2020, published 2021)

Test system: fontane variety of potatoes
Protocol: There now follows a description of an experimental trial by the inventors
The goal of the trial was to recondition French fry tubers in a 2-3 week period to improve fry colour and maintain brittle sprouts.
3 trial cells were operated, each 85 cubic meters in size and holding fontane variety of potatoes. The stores holding each trial cell stores were warmed to 12.5° C.
A sample was taken from each cell. Each sample was made up of 25 tubers from the front and the back of the store. The tubers selected were showing signs of sprouting in some degree and have had variable and in some cases poor fry color results.
The first sample was sent for a benchmark Soleye fry colour measurement. Soleye is an optical colour reader used to determine fry colour.
Gradually reducing the ethylene level by 0.5 ppm per day from […] @ 12 C
First 7 days 4 ppm and from day 8 reduced to continuous 2 ppm @ 12 C

C=C [ethylene]
Soleye fry colour score (the lower the score, the better the fry colour) (after reconditioning, samples from store 64: continuous 2 ppm ethylene @ 12 C, FIG. 3): 0 | sprout condition following reconditioning (cells 56, 60 and 64, ethylene programmes at 12 C, 2-3 week period, all tubers): maintained brittle sprouts
